In patent publication US20130085150A1, “ANALOGUES FOR THE TREATMENT OR PREVENTION OF FLAVIVIRUS INFECTIONS” (Vertex Pharmaceuticals Incorporated, priority 2010, published 2013):
Where two headings read alike, the source gives them in different places.

Tested on: HCV (Ib) RNA replication, Huh-ET replicon cells
Experiment: Cell-based luciferase reporter HCV (Ib) RNA replication assay
Conditions: Hepatitis C virus, 96 h
[1] = HCV 1b replicon, luciferase, 4 days, read-out: EC50_ib

Source text: Cell-Based Luciferase Reporter HCV (Ib) RNA Replication Assay Cell Culture
This cell line allows measurement of HCV RNA replication and translation by measuring luciferase activity. […] The Huh-ET cell line has the same features as those mentioned for Huh-5.2 cell line, except that ET cells are more robust and contain an adaptative mutation in the HCV NS4B gene instead of NS5A. Both cell lines are maintained in cultures at a sub-confluent level (<85%) as the level of replicon RNA is highest in actively proliferating cells. The culture media used for cell passaging consist of DMEM (Gibco BRL Laboratories, Mississauga, ON, Canada) supplemented with 10% foetal bovine serum with 1% penicilin/streptomycin, 1% glutamine, 1% sodium pyruvate, 1% non-essential amino acids, and 180 μg/ml of G418 final concentration. Cells are incubated at 37° C., in an atmosphere of 5% CO2 and passaged twice a week to maintain sub-confluence.
Approximately 3000 viable Huh-ET cells (100 μl) are plated per well in a white opaque 96-well microtiter plate. The cell culture media used for the assay is the same as described above except that it contains no G418 and no phenol red. After an incubation period of 3-4 hours at 37° C. in a 5% CO2 incubator, compounds (100 μl) are added at various concentrations. Cells are then further incubated for 4 days at 37° C. in a 5% CO2 incubator. Thereafter, the culture media is removed and cells are lysed by the addition of 95 μL of the luciferase buffer (luciferin substrate in buffered detergent). Cell lysates are incubated at room temperature and protected from direct light for at least 10 minutes. Plates are read for luciferase counts using a luminometer (Wallac MicroBeta Trilux, Perkin Elmer™, MA, USA).
Curves are fitted to data points using nonlinear regression analysis, and IC50s are interpolated from the resulting curve using GraphPad Prism software, version 2.0 (GraphPad Software Inc., San Diego, Calif., USA).

| SMILES | EC50 [1] [µM] | EC50 (read-out: EC50_ib (uM)) [µM] |
| --- | --- | --- |
| CCCCN(Cc1nc2cc(C#Cc3ccc4[nH]c(C(=O)NC5CC5)cc4c3)ccc2[nH]1)C(=O)OCc1ccccc1 [Compound 1] | 0.005 to 5 |  |
| CC(C)(C)OC(=O)N1CCC[C@@H]1c1cn2cc(-c3ccc(-c4ccc5nc([C@H]6CCCN6C(=O)OC(C)(C)C)cn5c4)cc3)ccc2n1 [Compound 2] | 0.005 to 5 |  |
| c1cc(-c2ccc3nc([C@H]4CCCN4)cn3c2)ccc1-c1ccc2nc([C@H]3CCCN3)cn2c1 [Compound 3] | 0.005 to 5 |  |
| COC(=O)N[C@H](C(=O)N1C[C@@H](C)CC1c1nc2cc(-c3ccc(-c4ccc5nc(C6C[C@H](C)CN6C(=O)[C@@H](NC(=O)OC)C(C)C)oc5c4)cc3)ccc2[nH]1)C(C)C (stereo partly shown) [Compound 47] |  | < 0.005 |
